# According to ChEMBL document CHEMBL5257097, “An Isomer of Galidesivir That Potently Inhibits Influenza Viruses and Members of the Bunyavirales Order” (ACS Med Chem Lett, 2023):
# Assays:
# Influenza A virus [1] = test: Antiviral activity against Influenza A virus H1N1 infected in dog MDCK cells assessed as reduction in virus-induced cytopathic effect measured after 15 to 30 mins by neutral red based analysis; assay type: functional, organism-based
# [2] = Cytotoxicity against African green monkey Vero cells infected with DENV-2 assessed as reduction in cell viability by neutral red dye based assay; assay type: toxicity; conditions: chlorocebus sabaeus
# [3] = (§1) Selectivity index, ratio of CC50 for cytotoxicity against African green monkey Vero 76 cells infected with MERS-CoV assessed as reduction in cell viability by visual analysis to EC50 for antiviral activity against MERS-CoV infected in African green monkey Vero 76 cells assessed as reduction in virus-induced cytopathic effect by visual analysis; assay type: toxicity, cell-based; conditions: read-out: Ratio CC50/EC50
# [4] = as §1, with “Rift valley fever virus” for “MERS-CoV”; assay type: toxicity, cell-based; conditions: read-out: Ratio CC50/EC50
# Rift Valley fever virus [5] = test: Antiviral activity against Rift valley fever virus infected in African green monkey Vero 76 cells assessed as reduction in virus-induced cytopathic effect measured after 15 to 30 mins by visual analysis; assay type: functional, organism-based
# Zika virus [6] = test: Antiviral activity against Zika virus infected in African green monkey Vero 76 cells assessed as reduction in virus-induced cytopathic effect measured after 15 to 30 mins by neutral red based spectrophotometric analysis; assay type: functional, organism-based
# [7] = Cytotoxicity against African green monkey Vero cells infected with DENV-2 assessed as reduction in cell viability by visual assay; assay type: toxicity, cell-based; conditions: chlorocebus sabaeus
# [8] = system: Middle East respiratory syndrome-related coronavirus; test: Antiviral activity against MERS-CoV infected in vervet monkey MA-104 cells assessed as reduction in virus-induced cytopathic effect measured after 15 to 30 mins by visual analysis; assay type: functional, organism-based; conditions: MA104
# [9] = Cytotoxicity against dog MDCK cells infected with Influenza A virus H1N1 assessed as reduction in cell viability by visual analysis; assay type: toxicity, cell-based, Canis lupus familiaris
# [10] = as §1, with “Vero” for “Vero 76”, “with DENV-2” for “with MERS-CoV”, “against DENV-2” for “against MERS-CoV”, “in human Huh-7” for “in African green monkey Vero 76”; assay type: toxicity, cell-based; conditions: read-out: Ratio CC50/EC50
# [11] = Cytotoxicity against African green monkey Vero 76 cells infected with Zika virus assessed as reduction in cell viability by visual analysis; assay type: toxicity, cell-based; conditions: chlorocebus sabaeus
# dengue virus type 2 [12] = test: Antiviral activity against DENV-2 infected in African green monkey Vero cells assessed as reduction in virus-induced cytopathic effect measured after 15 to 30 mins by neutral red based analysis; assay type: functional, organism-based
# [13] = Selectivity index, ratio of CC50 for cytotoxicity against African green monkey Vero 76 infected with Zika virus assessed as reduction in cell viability by visual analysis to EC50 for antiviral activity against Zika virus infected in African green monkey Vero 76 cells assessed as reduction in virus-induced cytopathic effect by visual analysis; assay type: toxicity, cell-based; conditions: Vero 76 cells infected with Zika virus, read-out: Ratio CC50/EC50
# [14] = system: Middle East respiratory syndrome-related coronavirus; test: Antiviral activity against MERS-CoV infected in vervet monkey MA-104 cells assessed as reduction in virus-induced cytopathic effect measured after 15 to 30 mins by neutral red dye based assay; assay type: functional, organism-based; conditions: MA104
# dengue virus type 2 [15] = test: Antiviral activity against DENV-2 infected in African green monkey Vero cells assessed as reduction in virus-induced cytopathic effect measured after 15 to 30 mins by visual analysis; assay type: functional, organism-based
# Influenza A virus [16] = test: Antiviral activity against Influenza A virus H1N1 infected in dog MDCK cells assessed as reduction in virus-induced cytopathic effect measured after 15 to 30 mins by visual analysis; assay type: functional, organism-based
# [17] = Cytotoxicity against African green monkey Vero 76 cells infected with Rift valley fever virus assessed as reduction in cell viability by visual analysis; assay type: toxicity, cell-based; conditions: chlorocebus sabaeus
# Yellow fever virus [18] = test: Antiviral activity against Yellow fever virus infected in human Huh-7 cells assessed as reduction in virus-induced cytopathic effect measured after 15 to 30 mins by visual analysis; assay type: functional, organism-based; conditions: huh-7
# [19] = as §1, with “neutral red dye based” for “visual”; assay type: toxicity; conditions: read-out: Ratio CC50/EC50
# [20] = Cytotoxicity against African green monkey Vero 76 cells infected with Zika virus assessed as reduction in cell viability by neutral red dye based assay; assay type: toxicity; conditions: chlorocebus sabaeus
# [21] = Selectivity index, ratio of CC50 for cytotoxicity against African green monkey Vero 76 cells infected with Zika virus assessed as reduction in cell viability by neutral red dye based analysis to EC50 for antiviral activity against Zika virus infected in African green monkey Vero 76 cells assessed as reduction in virus-induced cytopathic effect by neutral red based spectrophotometric analysis; assay type: toxicity; conditions: read-out: Ratio CC50/EC50
# Zika virus [22] = test: Antiviral activity against Zika virus infected in African green monkey Vero 76 cells assessed as reduction in virus-induced cytopathic effect measured after 15 to 30 mins by visual analysis; assay type: functional, organism-based
# Rift Valley fever virus [23] = test: Antiviral activity against Rift valley fever virus infected in African green monkey Vero 76 cells assessed as reduction in virus-induced cytopathic effect measured after 15 to 30 mins by neutral red dye based analysis; assay type: functional, organism-based
# [24] = Selectivity index, ratio of CC50 for cytotoxicity against African green monkey Vero 76 cells infected with Rift valley fever virus assessed as reduction in cell viability by neutral red dye based analysis to EC50 for antiviral activity against Rift valley fever virus infected in African green monkey Vero 76 cells assessed as reduction in virus-induced cytopathic effect by neutral red dye based analysis; assay type: toxicity; conditions: read-out: Ratio CC50/EC50
# [25] = Selectivity index, ratio of CC50 for cytotoxicity against African green monkey Vero cells infected with DENV-2 assessed as reduction in cell viability by neutral red analysis to EC50 for antiviral activity against DENV-2 infected in human Huh-7 cells assessed as reduction in virus-induced cytopathic effect by neutral red analysis; assay type: toxicity, cell-based; conditions: read-out: Ratio CC50/EC50
# [26] = Cytotoxicity against vervet monkey MA-104 cells infected with MERS-CoV assessed as reduction in cell viability by visual assay; assay type: toxicity, cell-based; conditions: cercopithecus pygerythrus
# [27] = Cytotoxicity against dog MDCK cells infected with Influenza A virus H1N1 assessed as reduction in cell viability by neutral red dye based assay; assay type: toxicity, Canis lupus familiaris
# [28] = Cytotoxicity against African green monkey Vero 76 cells infected with Rift valley fever virus assessed as reduction in cell viability by neutral red dye based analysis; assay type: toxicity; conditions: chlorocebus sabaeus
# [29] = Cytotoxicity against vervet monkey MA-104 cells infected with MERS-CoV assessed as reduction in cell viability by neutral red dye based assay; assay type: toxicity; conditions: cercopithecus pygerythrus
# Influenza A virus [30] = test: Antiviral activity against Influenza A virus H7N9 infected in dog MDCK cells; assay type: functional, organism-based
# Influenza B virus = test: Antiviral activity against Influenza B virus infected in dog MDCK cells
# Influenza A virus [31] = test: Antiviral activity against Influenza A virus H1N1 infected in dog MDCK cells; assay type: functional, organism-based
# [32] = Cytotoxicity against dog MDCK cells infected with Influenza A virus H1N1; assay type: toxicity, cell-based, Canis lupus familiaris
# [33] = Cytotoxicity against dog MDCK cells infected with Influenza B virus; assay type: toxicity, cell-based, Canis lupus familiaris
# [34] = Cytotoxicity against dog MDCK cells infected with Influenza A virus H3N2; assay type: toxicity, cell-based, Canis lupus familiaris
# Influenza A virus [35] = test: Antiviral activity against Influenza A virus H3N2 infected in dog MDCK cells; assay type: functional, organism-based
# [36] = Selectivity index, ratio of CC50 for cytotoxicity against human Huh-7 cells infected with Yellow fever virus assessed as reduction in cell viability by neutral red dye based assay to EC50 for antiviral activity against Yellow fever virus infected in human Huh-7 cells assessed as reduction in virus-induced cytopathic effect by neutral red based analysis; assay type: toxicity; conditions: read-out: Ratio CC50/EC50
# [37] = Selectivity index, ratio of CC50 for cytotoxicity against dog MDCK cells infected with Influenza A virus H1N1 assessed as reduction in cell viability by neutral red dye based analysis to EC50 for antiviral activity against Influenza A virus H1N1 infected in dog MDCK cells assessed as reduction in virus-induced cytopathic effect by neutral red dye based analysis; assay type: toxicity; conditions: read-out: Ratio CC50/EC50
# Yellow fever virus [38] = test: Antiviral activity against Yellow fever virus infected in human Huh-7 cells assessed as reduction in virus-induced cytopathic effect measured after 15 to 30 mins by neutral red based analysis; assay type: functional, organism-based
# dengue virus type 2 [39] = test: Antiviral activity against DENV-2 infected in human Huh-7 cells assessed as reduction in virus-induced cytopathic effect measured after 15 to 30 mins by neutral red based analysis; assay type: functional, organism-based
# Huh-7 [40] = test: Cytotoxicity against human Huh-7 cells infected with DENV-2 assessed as reduction in cell viability by visual analysis; assay type: functional
# Huh-7 [41] = test: Cytotoxicity against human Huh-7 cells infected with Yellow fever virus assessed as reduction in cell viability by visual assay; assay type: functional
# [42] = Cytotoxicity against African green monkey Vero 76 cells infected with MERS-CoV assessed as reduction in cell viability by neutral red dye based analysis; assay type: toxicity; conditions: chlorocebus sabaeus
# [43] = system: Middle East respiratory syndrome-related coronavirus; test: Antiviral activity against MERS-CoV infected in African green monkey Vero 76 cells assessed as reduction in virus-induced cytopathic effect measured after 15 to 30 mins by neutral red dye based analysis; assay type: functional, organism-based
compound,measurement,setting,value
Nc1ncnc2c([C@@H]3N[C@H](CO)[C@@H](O)[C@H]3O)n[nH]c12,EC50,Influenza A virus [1],> 100 µM
same,CC50,[2],2.8 µM
same,selectivity ratio,[3],4.9
same,selectivity ratio,[4],8.3
same,EC50,Rift Valley fever virus [5],4.2 µM
same,EC50,Zika virus [6],12 µM
same,CC50,[7],> 100 µM
same,EC50,[8],8.6 µM
same,CC50,[9],> 100 µM
same,selectivity ratio,[10],3.1
same,CC50,[11],100 µM
same,EC50,dengue virus type 2 [12],2.8 µM
same,selectivity ratio,[13],3.1
same,EC50,[14],9.9 µM
same,EC50,dengue virus type 2 [15],3.2 µM
same,EC50,Influenza A virus [16],> 100 µM
same,CC50,[17],8.3 µM
same,EC50,Yellow fever virus [18],Not Active
same,selectivity ratio,[19],4.5
same,CC50,[20],13 µM
same,selectivity ratio,[21],1.1
same,EC50,Zika virus [22],32 µM
same,EC50,Rift Valley fever virus [23],4.2 µM
same,selectivity ratio,[24],7.6
same,selectivity ratio,[25],3.5
same,CC50,[26],42 µM
same,CC50,[27],> 100 µM
same,CC50,[28],> 100 µM
same,CC50,[29],45 µM
NC(=O)c1ncn([C@@H]2O[C@H](CO)[C@@H](O)[C@H]2O)n1 [RIBAVIRIN],EC50,Influenza A virus [30],10 µM
same,EC50,Influenza B virus,1.9 µM
same,EC50,Influenza A virus [31],1.9 µM
same,CC50,[32],> 1000 µM
same,CC50,[33],> 1000 µM
same,CC50,[34],> 1000 µM
same,EC50,Influenza A virus [35],1.9 µM
CC(C)OC(=O)[C@H](C)N[P@](=O)(OC[C@H]1N[C@@H](c2ccc3c(N)ncnn23)[C@H](O)[C@@H]1O)Oc1ccccc1,selectivity ratio,[36],9
same,EC50,Influenza A virus [1],4.7 µM
same,selectivity ratio,[37],> 6.8
same,EC50,Yellow fever virus [38],3.6 µM
same,EC50,dengue virus type 2 [39],1.1 µM
same,CC50,Huh-7 [40],9.9 µM
same,selectivity ratio,[19],5.2
same,CC50,Huh-7 [41],9.9 µM
same,EC50,Rift Valley fever virus [23],0.99 µM
same,selectivity ratio,[24],> 32
same,CC50,[27],> 32 µM
same,CC50,[42],68 µM
same,CC50,[28],> 32 µM
same,EC50,[43],13 µM
CC(C)OC(=O)[C@H](C)N[P@](=O)(OC[C@H]1N[C@@H](c2c[nH]c3c(N)ncnc23)[C@H](O)[C@@H]1O)Oc1ccccc1,EC50,Influenza A virus [1],> 100 µM
same,EC50,Yellow fever virus [38],> 100 µM
same,EC50,dengue virus type 2 [39],> 100 µM
same,CC50,Huh-7 [40],> 100 µM
same,CC50,Huh-7 [41],> 100 µM
same,EC50,Rift Valley fever virus [23],> 100 µM
same,CC50,[27],> 100 µM
same,CC50,[42],> 100 µM
same,CC50,[28],> 100 µM
same,EC50,[43],> 100 µM
